According to BigSolDB 2.1:

CC(C)(C)NSc1nc2ccccc2s1
solubility (mole fraction)
Settings | 273.2 K | 278.2 K | 283.2 K | 288.2 K | 293.2 K | 298.2 K | 303.2 K | 308.2 K | 313.2 K
in ethanol | 0.00951 | 0.0111 | 0.0133 | 0.0157 | 0.0198 | 0.0236 | 0.0278 | 0.0344 | 0.0419
in isopropanol | 0.00844 | 0.00938 | 0.0122 | 0.015 | 0.0176 | 0.0208 | 0.025 | 0.0298 | 0.0352
in methanol | 0.00591 | 0.00707 | 0.00834 | 0.00991 | 0.0123 | 0.0148 | 0.0178 | 0.0219 | 0.0266
in n-butanol | 0.0177 | 0.0202 | 0.0237 | 0.028 | – | 0.0375 | 0.0444 | 0.0524 | 0.061
in tert-butylamine | 0.0952 | 0.107 | 0.115 | 0.124 | 0.135 | 0.149 | 0.165 | 0.176 | 0.198
in toluene | 0.0273 | 0.0355 | 0.0422 | 0.0518 | 0.0605 | 0.0691 | 0.084 | 0.102 | 0.122
